Laboratory results as given in US8530489B2 (Vertex Pharmaceuticals Incorporated, priority 2006, dated 2013).

Legend:
Type in all cases: biochemical
[1] = target: PLK2 (Homo sapiens, UniProt Q9NYY3); test: PLK2 Inhibition Assay (radioactive-phosphate incorporation); settings: selectivity ratio, PLK2 over PLK1
Experimental: (§1) The compounds of the present invention are evaluated as inhibitors of human PLK kinase using the following assays.
Compounds were screened for their ability to inhibit PLK2 using a radioactive-phosphate incorporation assay. Assays were carried out in a mixture of 25 mM HEPES (pH 7.5), 10 mM MgCl2, 0.1% BSA, and 2 mM DTT. Final substrate concentrations were 200 μM [γ-33P]ATP (57 mCi 33P ATP/mmol ATP, Amersham Pharmacia Biotech/Sigma Chemicals) and 300 μM peptide (KKKISDELMDATFADQEAK) [SEQ ID:3]. Assays were carried out at 25° C. in the presence of 25 nM PLK2. An assay stock buffer solution was prepared containing all of the reagents listed above, with the exception of ATP and the test compound of interest. 30 μL of the stock solution was placed in a 96 well plate followed by addition of 2 μL of DMSO stock containing serial dilutions of the test compound (typically starting from a final concentration of 10 μM with 2-fold serial dilutions) in duplicate (final DMSO concentration 5%). The plate was pre-incubated for 10 minutes at 25° C. and the reaction initiated by addition of 8 μL [γ-33P]ATP (final concentration 200 μM).
(§2) The reaction was stopped after 90 minutes by the addition of 100 μL 0.14 M phosphoric acid. A multiscreen phosphocellulose filter 96-well plate (Millipore, Cat No. MAPHN0B50) was pretreated with 100 μL 0.2M phosphoric acid prior to the addition of 125 μL of the stopped assay mixture. The plate was washed with 4×200 μL 0.2 M phosphoric acid. After drying, 100 μL Optiphase ‘SuperMix’ liquid scintillation cocktail (Perkin Elmer) was added to the well prior to scintillation counting (1450 Microbeta Liquid Scintillation Counter, Wallac).
(§3) After removing mean background values for all of the data points, Ki(app) data were calculated from non-linear regression analysis of the initial rate data using the Prism software package (GraphPad Prism version 3.0cx for Macintosh, GraphPad Software, San Diego Calif., USA).

[2] = target: PLK1 (Homo sapiens, UniProt P53350); test: PLK1 Inhibition Assay I (radioactive-phosphate incorporation); settings: Ki(app); PLK1 Inhibition Assay I or II (table does not say which)
Method in brief: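 Ki(app) values came from non-linear regression of initial rates after background subtraction, with phosphopeptide measured by phosphocellulose filter binding and scintillation counting. PLK1 at 2 nM was preincubated with compound (typically from 10 μM, 2-fold dilutions) for 10 min, then run 240 min at 25° C with 350 μM [γ-33P]ATP and 450 μM peptide substrate in HEPES pH 7.5 buffer.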

[3] = target: T1, PLK3 (S38-A340) (Homo sapiens, UniProt Q9H4B4); test: PLK3 Inhibition Assay (radioactive-phosphate incorporation); settings: selectivity ratio, PLK3 over PLK1
T1 construct: in the presence of 5 nM PLK3 (S38-A340)
Experimental: as §1
Compounds were screened for their ability to inhibit PLK3 using a radioactive-phosphate incorporation assay. Assays were carried out in a mixture of 25 mM HEPES (pH 7.5), 10 mM MgCl2, and 1 mM DTT. Final substrate concentrations were 75 μM [γ-33P]ATP (60 mCi 33P ATP/mmol ATP, Amersham Pharmacia Biotech/Sigma Chemicals) and 10 μM peptide (SAM68 protein Δ332-443). Assays were carried out at 25° C. in the presence of 5 nM PLK3 (S38-A340). An assay stock buffer solution was prepared containing all of the reagents listed above, with the exception of ATP and the test compound of interest. 30 μL of the stock solution was placed in a 96 well plate followed by addition of 2 μL of DMSO stock containing serial dilutions of the test compound (typically starting from a final concentration of 10 μM with 2-fold serial dilutions) in duplicate (final DMSO concentration 5%). The plate was pre-incubated for 10 minutes at 25° C. and the reaction initiated by addition of 8 μL [γ-33P]ATP (final concentration 75 μM).
as §2, with “60” for “90”, “0.14M” for “0.14 M”
as §3

Chain of PLK2 (Q9NYY3 whole entry): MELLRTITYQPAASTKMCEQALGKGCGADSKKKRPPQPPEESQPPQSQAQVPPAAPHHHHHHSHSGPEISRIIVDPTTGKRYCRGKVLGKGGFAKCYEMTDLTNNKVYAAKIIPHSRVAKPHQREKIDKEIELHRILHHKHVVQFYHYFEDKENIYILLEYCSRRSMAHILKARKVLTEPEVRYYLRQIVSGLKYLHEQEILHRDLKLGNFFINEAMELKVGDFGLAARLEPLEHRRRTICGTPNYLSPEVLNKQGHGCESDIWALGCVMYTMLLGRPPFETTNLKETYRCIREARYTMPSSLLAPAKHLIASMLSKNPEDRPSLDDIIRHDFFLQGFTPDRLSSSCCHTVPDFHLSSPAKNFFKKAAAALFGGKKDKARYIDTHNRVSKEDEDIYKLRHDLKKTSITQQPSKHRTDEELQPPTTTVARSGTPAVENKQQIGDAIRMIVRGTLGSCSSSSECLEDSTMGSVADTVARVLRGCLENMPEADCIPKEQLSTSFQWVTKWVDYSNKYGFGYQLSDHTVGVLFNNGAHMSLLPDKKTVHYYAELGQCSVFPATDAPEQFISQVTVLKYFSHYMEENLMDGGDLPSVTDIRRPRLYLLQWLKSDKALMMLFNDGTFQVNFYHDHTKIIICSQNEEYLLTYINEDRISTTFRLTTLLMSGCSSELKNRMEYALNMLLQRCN
Chain of PLK1 (P53350 whole entry): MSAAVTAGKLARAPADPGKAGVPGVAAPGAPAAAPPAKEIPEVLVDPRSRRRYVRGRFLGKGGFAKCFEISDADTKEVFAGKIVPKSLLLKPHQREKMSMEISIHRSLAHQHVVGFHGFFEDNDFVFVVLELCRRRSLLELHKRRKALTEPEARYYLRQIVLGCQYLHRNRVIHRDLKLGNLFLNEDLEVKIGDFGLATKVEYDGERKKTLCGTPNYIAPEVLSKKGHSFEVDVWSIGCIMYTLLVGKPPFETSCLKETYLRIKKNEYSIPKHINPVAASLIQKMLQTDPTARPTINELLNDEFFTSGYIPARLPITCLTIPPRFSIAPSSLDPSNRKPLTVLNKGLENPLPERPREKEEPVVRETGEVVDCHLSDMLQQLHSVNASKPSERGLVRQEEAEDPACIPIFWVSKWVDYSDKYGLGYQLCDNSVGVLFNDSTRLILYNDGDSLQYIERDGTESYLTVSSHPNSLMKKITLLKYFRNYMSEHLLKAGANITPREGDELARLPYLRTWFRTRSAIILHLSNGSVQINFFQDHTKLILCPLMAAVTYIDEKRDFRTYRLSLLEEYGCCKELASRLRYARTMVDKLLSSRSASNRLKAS
T1 sequence (Q9H4B4 58-340 limits assumed): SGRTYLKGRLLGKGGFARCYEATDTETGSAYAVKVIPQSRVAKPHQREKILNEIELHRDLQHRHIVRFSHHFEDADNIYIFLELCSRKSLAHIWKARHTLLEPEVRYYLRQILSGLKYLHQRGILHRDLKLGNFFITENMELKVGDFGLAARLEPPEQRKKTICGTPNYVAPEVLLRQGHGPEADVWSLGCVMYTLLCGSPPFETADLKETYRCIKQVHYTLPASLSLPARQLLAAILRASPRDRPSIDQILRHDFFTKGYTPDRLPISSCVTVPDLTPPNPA

Row | SMILES | Ki(PLK2)/Ki(PLK1) [1] | Ki [2] [nM] | Ki(PLK3)/Ki(PLK1) [3]
1 | C[C@@H](Nc1ncc(C#N)c(-c2c[nH]c3ncc(C(F)(F)F)cc23)n1)c1ccc(N2CCN(C)CC2)nc1 (single isomer, unassigned) [Compound I-147] | 523 | < 3 | 186
2 | CC(Nc1ncc(C#N)c(-c2c[nH]c3ncc(C(F)(F)F)cc23)n1)c1ccc(N2CCN(C)CC2)cc1 (centres unmarked) [Compound I-102, 2-(1-(4-(4-methylpiperazin-1-yl)phenyl)ethylamino)-4-(5-(trifluoromethyl)-1H-pyrrolo[2,3-b]pyridin-3-yl)pyrimidine-5-carbonitrile] | 113 | < 3 | 28
3 | CC(Nc1ncc(C#N)c(-c2c[nH]c3ncc(C(F)(F)F)cc23)n1)c1ccc(N2CCNCC2)cc1 (centres unmarked) [Compound I-124, 2-(1-(4-(piperazin-1-yl)phenyl)ethylamino)-4-(5-(trifluoromethyl)-1H-pyrrolo[2,3-b]pyridin-3-yl)pyrimidine-5-carbonitrile] | 323 | < 3 | 185
4 | CC(Nc1ncc(C#N)c(-c2c[nH]c3ncc(C(F)(F)F)cc23)n1)c1ccc(N2CCCN(C)CC2)cc1 (centres unmarked) [Compound I-126, 2-(1-(4-(4-methyl-1,4-diazepan-1-yl)phenyl)ethylamino)-4-(5-(trifluoromethyl)-1H-pyrrolo[2,3-b]pyridin-3-yl)pyrimidine-5-carbonitrile] | 211 | < 3 | 126
5 | C[C@@H](Nc1ncc(C#N)c(-c2c[nH]c3ncc(C(F)(F)F)cc23)n1)c1ccc(N2CCN(C)CC2)cc1 [Compound I-127, 2-((R)-1-(4-(4-methylpiperazin-1-yl)phenyl)ethylamino)-4-(5-(trifluoromethyl)-1H-pyrrolo[2,3-b]pyridin-3-yl)pyrimidine-5-carbonitrile] | 210 | < 3 | 140
6 | CC(Nc1ncc(C#N)c(-c2c[nH]c3ncc(C(F)(F)F)cc23)n1)c1ccc(N2CCCNCC2)cc1 (centres unmarked) [Compound I-131, 2-(1-(4-(1,4-diazepan-1-yl)phenyl)ethylamino)-4-(5-(trifluoromethyl)-1H-pyrrolo[2,3-b]pyridin-3-yl)pyrimidine-5-carbonitrile] | 180 | < 3 | 163
7 | CC(Nc1ncc(C#N)c(-c2c[nH]c3ncc(C(F)(F)F)cc23)n1)c1ccc(N2CCN(C)CC2)nc1 (centres unmarked) [Compound I-139, 2-(1-(6-(4-methylpiperazin-1-yl)pyridin-3-yl)ethylamino)-4-(5-(trifluoromethyl)-1H-pyrrolo[2,3-b]pyridin-3-yl)pyrimidine-5-carbonitrile] | 1000 | < 3 | 456
8 | C[C@@H](Nc1ncc(C#N)c(-c2c[nH]c3ncc(C(F)(F)F)cc23)n1)c1ccc(N2CCN(C)CC2)c(F)c1 [Compound I-142, 2-((R)-1-(3-fluoro-4-(4-methylpiperazin-1-yl)phenyl)ethylamino)-4-(5-(trifluoromethyl)-1H-pyrrolo[2,3-b]pyridin-3-yl)pyrimidine-5-carbonitrile] | <30 | < 3 | <23
9 | C[C@H](Nc1ncc(C#N)c(-c2c[nH]c3ncc(C(F)(F)F)cc23)n1)c1ccc(N2CCN(C)CC2)nc1 [Compound I-148] | 63 | 3 to 40 | 70
10 | C[C@@H](Nc1ncc(C#N)c(-c2c[nH]c3ncc(C(F)(F)F)cc23)n1)c1ccc(N2CCN(C)CC2)cc1F [Compound I-149, 2-((R)-1-(2-fluoro-4-(4-methylpiperazin-1-yl)phenyl)ethylamino)-4-(5-(trifluoromethyl)-1H-pyrrolo[2,3-b]pyridin-3-yl)pyrimidine-5-carbonitrile] | <130 | < 3 | <100
11 | CC(Nc1ncc(C#N)c(-c2c[nH]c3ncc(C(F)(F)F)cc23)n1)c1ccc(N2CCNCC2)nc1 (centres unmarked) [Compound I-167, 2-(1-(6-(piperazin-1-yl)pyridin-3-yl)ethylamino)-4-(5-(trifluoromethyl)-1H-pyrrolo[2,3-b]pyridin-3-yl)pyrimidine-5-carbonitrile] | 914 | < 3 | 586
12 | C[C@@H](Nc1ncc(C#N)c(-c2c[nH]c3ncc(C(F)(F)F)cc23)n1)c1cnc(N[C@H]2CCN(C)C2)nc1 [Compound I-268, 2-((R)-1-(2-((S)-1-methylpyrrolidin-3-ylamino)pyrimidin-5-yl)ethylamino)-4-(5-(trifluoromethyl)-1H-pyrrolo[2,3-b]pyridin-3-yl)pyrimidine-5-carbonitrile] | 293 | < 3 | 141
13 | CC(Nc1ncc(C#N)c(-c2c[nH]c3ncc(C(F)(F)F)cc23)n1)c1ccc(N[C@@H]2CCNC2)nc1 (stereo partly drawn) [Compound I-272, 2-(1-(6-((R)-pyrrolidin-3-ylamino)pyridin-3-yl)ethylamino)-4-(5-(trifluoromethyl)-1H-pyrrolo[2,3-b]pyridin-3-yl)pyrimidine-5-carbonitrile] | 67 | < 3 | 14
14 | C[C@H]1CN(c2ccc([C@@H](C)Nc3ncc(C#N)c(-c4c[nH]c5ncc(C(F)(F)F)cc45)n3)cn2)CCN1 [Compound I-273, 2-((R)-1-(6-((S)-3-methylpiperazin-1-yl)pyridin-3-yl)ethylamino)-4-(5-(trifluoromethyl)-1H-pyrrolo[2,3-b]pyridin-3-yl)pyrimidine-5-carbonitrile] | 1813 | < 3 | 581
15 | CNCCN(C)c1ccc([C@@H](C)Nc2ncc(C#N)c(-c3c[nH]c4ncc(C(F)(F)F)cc34)n2)cn1 [Compound I-275, 2-((R)-1-(6-(methyl(2-(methylamino)ethyl)amino)pyridin-3-yl)ethylamino)-4-(5-(trifluoromethyl)-1H-pyrrolo[2,3-b]pyridin-3-yl)pyrimidine-5-carbonitrile] | 313 | < 3 | 919
16 | CC(Nc1ncc(C#N)c(-c2c[nH]c3ncc(C(F)(F)F)cc23)n1)c1ccc(N[C@H]2CCNC2)nc1 (stereo partly drawn) [Compound I-277, 2-(1-(6-((S)-pyrrolidin-3-ylamino)pyridin-3-yl)ethylamino)-4-(5-(trifluoromethyl)-1H-pyrrolo[2,3-b]pyridin-3-yl)pyrimidine-5-carbonitrile] | – | < 3 | 39
17 | CNCCNc1ccc(C(C)Nc2ncc(C#N)c(-c3c[nH]c4ncc(C(F)(F)F)cc34)n2)cn1 (centres unmarked) [Compound I-278, 2-(1-(6-(2-(methylamino)ethylamino)pyridin-3-yl)ethylamino)-4-(5-(trifluoromethyl)-1H-pyrrolo[2,3-b]pyridin-3-yl)pyrimidine-5-carbonitrile] | 208 | < 3 | 142
